Entries after “also recorded” stand apart in the source; their conditions may differ.
Columns and labels:
[1] = system: K3-CHO and Park8-SH-SY5Y cells expressing human Parkin; assay: Parkin cleavage during cellular apoptosis, induction verified by PARP immunoblot, in Parkin expressing cell lines; type: cell-based
Text: Parkin cleavage during cellular apoptosis. […] Lanes 1-4, 6 were probed with T160, lane 5 with PAR-N1 and lane 7 with PAR-C1. The molecular weight is indicated to the left for Parkin (51 kDa) and the Parkin peptides (38 kDa and 11,5 kDa, respectively). The induction of apoptosis was verified biochemically by testing the binding of the same membranes with the mouse monoclonal poly-ADP-ribose (PARP) antibody 66401 A (Pharmigen). […] The generation of the 86 kDa PARP fragment is a recognised marker for apoptosis associated proteolysis.
The stably transfected Parkin expressing cell lines, K3-CHO (FIG. 3, lanes 1-5) and Park8-SH-SY5Y (FIG. 3, lanes 6, 7) were extracted and prepared for immunoblotting as described in example 2. […] FIG. 3, lanes 1-4, 6 were probed with T160, lane 5 with PAR-N1 and lane 7 with PAR-C1 antibodies. The molecular weight is indicated to the left for Parkin (51 kDa) and the Parkin peptides (38 kDa and 11,5 kDa, respectively). […]

[2] = system: apoptosis-associated Parkin cleavage in K3 CHO cells expressing human Parkin; assay: Caspase inhibitors on okadaic acid-induced, apoptosis-associated Parkin cleavage in K3 CHO cells (T160 immunoblot); type: cell-based, Chinese hamster; conditions: 10 microM inhibitor, 200 nM okadaic acid for 16 h
Procedure: K3 CHO cells were treated with 200 nM okadaic acid for 16 h (lanes 2-4) in the presence of 10 microM of the caspase inhibitors YVAD-chloromethylketone (lane 3) and DEVD-chloromethylketone (lane 4). The control cells treated with the DMSO used for solubilising the caspase inhibitors are shown in lane 2. Lane 1 represents non-treated control cells. […] Similar data was obtained in the Park8 SH-SY5Y cells.
The parental cell lines and the Parkin expressing cell lines were extracted in 8 M urea, 1% Triton X 100.20 microgram protein was supplemented to 2% sodium dodecylsulphate, 20 mM dithioerythreitol, 20 mM Tris, pH 6.5, 20% glycerol, heated to 95° C. for 5 min, whereafter the mixture was resolved by 10-20% gradient sodium dodecylsulphate polyacrylamide gelelectrophoresis. The proteins in the gel were electroblotted onto a nitrocellulose membrane and non-specific protein binding was blocked by incubating the membrane in block solution (20 mM Tris, pH 7.4, 130 mM NaCl, 0.5% Triton X100, 5% skimmed milk powder) for 2 hours. The membrane was subsequently incubated with primary antibody (PAR-N1, PAR-C1 and T160 diluted 1/500 in block solution) for 2 hours, rinsed in 20 mM Tris, pH 7.4, 130 mM NaCl, 0.5% Triton X100 and incubated with a second antibody (horse radish peroxidase conjugated swine anti rabbit serum) for 1 hour and rinsed. The bound antibody was then visualised by chemilumenescense according to the manufacturers recommendation (ECL, Amersham Pharmacia Biotech). FIG. 2 panel B, lanes 1 and 5 represent the non-transfected CHO and SH-SY5Y cell lines, respectively. FIG. 2, panel B, lanes 24 represents Parkin expressing CHO cells K3 and lane 6 represents the Parkin expressing SH-SY5Y cell Park 8. Lanes 1, 2, 5 and 6 were incubated with T160, lane 3 with PAR-Ni and lane 4 with PAR-C1. The molecular size marker is indicated to the left in kDa.
K3-CHO cells were treated with 200 nM okadaic acid for 16 h prior to extraction and processing for T160 immunoblot as described in example 2. […]

[3] = system: apoptosis-associated (caspase) cleavage of human Parkin; assay: Site directed mutagenesis of Parkin Asp residues: apoptosis-associated cleavage in stably transfected CHO and SH-SY5Y cell lines (T160 immunoblot); type: cell-based; conditions: 200 nanoM okadaic acid for 16 h
Text: Site directed mutagenesis of […] 126 in parkin to a glutamate residue reduce the apoptosis associated cleavage of parkin. Caspases are proteinases that always cleave after an Asp residue and FIG. 3 indicated the cleavage takes place within the N-terminal 150 amino acid residues. We mutagenised the parkin expression vector to express human parkin where the Asp in the positions 86 plus 87,106, 115, 126 and 130 were substituted with and Glu. CHO and SHSY5Y cell lines were stably transfected with the expression vectors and used for testing the effect of the mutations on apoptosis-associated parkin cleavage. These cells and the cell lines expressing the normal Parkin were treated with 200 nanoM okadaic acid for 16 h and extracted for T160 immunoblotting. The CHO cell lines are represented in lanes 1-6 and the SH-SY5Y cell lines in lanes 7-12. Wild type Parkin is represented in lanes 1, 2, 7, 8; D126E in lanes 3, 4, 9, 10; D130E in lanes 5, 6, 11, 12. Lanes 1, 3, 5, 7, 9, 11 represent untreated cells and lanes 2, 4, 6, 8, 10, 12 represent okadaic treated cells. The positions of the 51 kDa and 38 kDa Parkin proteins are indicated by the upper and lower left arrows.
Caspases are proteinases that always cleave after an Asp residue. Cell lines were generated where Asp residues were changed to Glu residues to test if this amino acid position might represent the caspase cleavage sites. The Parkin expression vector used for generating the Parkin expressing K3 CHO and Park8 SH-SY5Y cell lines was changed by PCR mediated site directed mutagenesis so the nucleotide No.479 was changed from a cytosine to an adenine (ParkinD126E). The cDNA encoding Parkin was kindly provided by Dr. Mizuno, Juntendo University School of Medicine, Japan. The Parkin cDNA was PCR amplified using the primers: […]
The amplified Parkin cDNA was cloned into the Nhe I and EcoR I site of the pcDNA3.1/Zeo(−) vector and the Parkin cDNA sequence was checked by sequencing. To prepare the D126E mutant, the inventors performed site-directed mutagenesis using the Quickchange Mutagenesis Kit (Stratagene) according to the manufactures instructions. Complementary strands of the oligonucleotide: 5′-[…]-3′ were used for preparing the D126E mutated construct. Parkin vectors containing Parkin mutated for D130E and DD86, 87EE were constructed by analogous techniques. This vector was then transfected into SH-SYSY or CHO cells using FUGENE6 (Boehringer Mannheim) and stably transfected cell lines were selected using 25 microgram Zeocinl ml medium (SH-SY5Y cells) or 300 microgram Zeocin/ml medium (CHO cells). The sequences of the vectors were verified by DNA sequencing. The expression vectors were used to generate the stably transfected DD86, 87EE, D126E and D130E CHO and SH-SY5Y cell lines expressing Parkin protein with the indicated substitutions of amino acids. These cells and the cell lines expressing the normal Parkin were treated with 200 nanoM okadaic acid for 16 h and extracted for T160 immunoblotting. The CHO cell lines are represented in lanes FIG. 5, 1-6 and the SH-SY5Y cell lines in lanes 7-12. Wild type Parkin is represented in lanes 1, 2, 7, 8; D126E in lanes 3, 4, 9, 10; D130E in lanes 5, 6, 11, 12. Lanes 1, 3, 5, 7, 9, 11 represent untreated cells and lanes 2, 4, 6, 8, 10, 12 represent okadaic treated cells. The positions of the 51 kDa and 38 kDa Parkin proteins are indicated by the upper and lower left arrows.

[4] = system: CHO and SH-SY5Y cell lines; conditions: cell death induced by 3 mM mercaptoethanol; Imai et al. 2000, FIG. 4A; cited from earlier work

With CC[C@@]1(O)C(=O)OCc2c1cc1n(c2=O)Cc2cc3ccccc3nc2-1 [campthotecin] the “Induction of apoptosis (generation of caspase 3 generated 86 kDa PARP fragment)” value ([1]; 5 microgram/ml for 30 hours, K3-CHO) was 86 kDa fragment was generated.

For OCCS [mercaptoethanol], the “Parkin cleavage after D126 following induced cell death” value ([1]; T160 immunoblotting as in example 3) was “followed by Parkin cleavage after D126”.

In the case of C=C1[C@@H](O)[C@@H]2O[C@]3(CC[C@H](/C=C/[C@@H](C)[C@@H]4CC(C)=C[C@@]5(O[C@H](C[C@@](C)(O)C(=O)O)CC[C@H]5O)O4)O3)CC[C@H]2O[C@@H]1[C@@H](O)C[C@H](C)[C@H]1O[C@@]2(CCCCO2)CC[C@H]1C [okadaic acid], the “Induction of apoptosis (generation of caspase 3 generated 86 kDa PARP fragment)” value ([1]; 200 nM for 16 hours) is reported as 86 kDa fragment was generated.

With DEVD-chloromethylketone the “Effect on apoptosis-associated Parkin cleavage (51 kDa Parkin to 38 kDa fragment)” value (“Effect” below) [2] was “abrogate the cleavage; also recorded: cleavage is abrogated”.

With YVAD-chloromethylketone the “Effect” value [2] was “cleavage is abrogated” and the “Effect” value ([2]; listed as WAD-chloromethylketone) was “abrogate the cleavage”.

B1: D130E: human Parkin with Asp 130 substituted by Glu (protein)
chain: MIVFVRFNSSHGFPVEVDSDTSIFQLKEVVAKRQGVPADQLRVIFAGKELRNDWTVQNCDLDQQSIVHIVQRPWRKGQEMNATGGDDPRNAAGGCEREPQSLTRVDLSSSVLPGDSVGLAVILHTDSRKESPPAGSPAGRSIYNSFYVYCKGPCQRVQPGKLRVQCSTCRQATLTLTQGPSCWDDVLIPNRMSGECQSPHCPGTSAEFFFKCGAHPTSDKETPVALHLIATNSRNITCITCTDVRSPVLVFQCNSRHVICLDCFHLYCVTRLNDRQFVHDPQLGYSLPCVAGCPNSLIKELHHFRILGEEQYNRYQQYGAEECVLQMGGVLCPRPGCGAGLLPEPDQRKVTCEGGNGLGCGFAFCRECKEAYHEGECSAVFEASGTTTQAYRVDERAAEQARWEAASKETIKKTTKPCPRCHVPVEKNGGCMHMKCPQPQCRLEWCWNCGCEWNRVCMGDHWFDV
In the case of B1, the “Apoptosis-associated cleavage of mutated Parkin compared to wild type” value [3] is reported as “no significant effect; also recorded: cleavage as the WT parkin”.

B2: DD86, 87EE: human Parkin double mutant, Asp 86 and 87 substituted by Glu (protein)
chain: MIVFVRFNSSHGFPVEVDSDTSIFQLKEVVAKRQGVPADQLRVIFAGKELRNDWTVQNCDLDQQSIVHIVQRPWRKGQEMNATGGEEPRNAAGGCEREPQSLTRVDLSSSVLPGDSVGLAVILHTDSRKDSPPAGSPAGRSIYNSFYVYCKGPCQRVQPGKLRVQCSTCRQATLTLTQGPSCWDDVLIPNRMSGECQSPHCPGTSAEFFFKCGAHPTSDKETPVALHLIATNSRNITCITCTDVRSPVLVFQCNSRHVICLDCFHLYCVTRLNDRQFVHDPQLGYSLPCVAGCPNSLIKELHHFRILGEEQYNRYQQYGAEECVLQMGGVLCPRPGCGAGLLPEPDQRKVTCEGGNGLGCGFAFCRECKEAYHEGECSAVFEASGTTTQAYRVDERAAEQARWEAASKETIKKTTKPCPRCHVPVEKNGGCMHMKCPQPQCRLEWCWNCGCEWNRVCMGDHWFDV
With B2 the “Apoptosis-associated cleavage of mutated Parkin compared to wild type” value [3] was “no significant effect; also recorded: cleavage as the WT parkin”.

B3: Parkin: wild type human Parkin protein (SEQ ID NO: 2) (protein, listed as Homo sapiens)
chain: MIVFVRFNSSHGFPVEVDSDTSIFQLKEVVAKRQGVPADQLRVIFAGKELRNDWTVQNCDLDQQSIVHIVQRPWRKGQEMNATGGDDPRNAAGGCEREPQSLTRVDLSSSVLPGDSVGLAVILHTDSRKDSPPAGSPAGRSIYNSFYVYCKGPCQRVQPGKLRVQCSTCRQATLTLTQGPSCWDDVLIPNRMSGECQSPHCPGTSAEFFFKCGAHPTSDKETPVALHLIATNSRNITCITCTDVRSPVLVFQCNSRHVICLDCFHLYCVTRLNDRQFVHDPQLGYSLPCVAGCPNSLIKELHHFRILGEEQYNRYQQYGAEECVLQMGGVLCPRPGCGAGLLPEPDQRKVTCEGGNGLGCGFAFCRECKEAYHEGECSAVFEASGTTTQAYRVDERAAEQARWEAASKETIKKTTKPCPRCHVPVEKNGGCMHMKCPQPQCRLEWCWNCGCEWNRVCMGDHWFDV
modifications: mat_peptide (1)..() Native Parkin
In the case of B3, the “Protection against cell death by Parkin expression” value [4] is listed as “approximately 50%”.

B4: D105E: human Parkin Asp to Glu mutant (position printed as 105 and 106) (protein)
chain: MIVFVRFNSSHGFPVEVDSDTSIFQLKEVVAKRQGVPADQLRVIFAGKELRNDWTVQNCDLDQQSIVHIVQRPWRKGQEMNATGGDDPRNAAGGCEREPQSLTRVELSSSVLPGDSVGLAVILHTDSRKDSPPAGSPAGRSIYNSFYVYCKGPCQRVQPGKLRVQCSTCRQATLTLTQGPSCWDDVLIPNRMSGECQSPHCPGTSAEFFFKCGAHPTSDKETPVALHLIATNSRNITCITCTDVRSPVLVFQCNSRHVICLDCFHLYCVTRLNDRQFVHDPQLGYSLPCVAGCPNSLIKELHHFRILGEEQYNRYQQYGAEECVLQMGGVLCPRPGCGAGLLPEPDQRKVTCEGGNGLGCGFAFCRECKEAYHEGECSAVFEASGTTTQAYRVDERAAEQARWEAASKETIKKTTKPCPRCHVPVEKNGGCMHMKCPQPQCRLEWCWNCGCEWNRVCMGDHWFDV
In the case of B4, the “Apoptosis-associated cleavage of mutated Parkin compared to wild type” value [3] is reported as “cleavage as the WT parkin”.

B5: D115E: human Parkin with Asp 115 substituted by Glu (protein)
chain: MIVFVRFNSSHGFPVEVDSDTSIFQLKEVVAKRQGVPADQLRVIFAGKELRNDWTVQNCDLDQQSIVHIVQRPWRKGQEMNATGGDDPRNAAGGCEREPQSLTRVDLSSSVLPGESVGLAVILHTDSRKDSPPAGSPAGRSIYNSFYVYCKGPCQRVQPGKLRVQCSTCRQATLTLTQGPSCWDDVLIPNRMSGECQSPHCPGTSAEFFFKCGAHPTSDKETPVALHLIATNSRNITCITCTDVRSPVLVFQCNSRHVICLDCFHLYCVTRLNDRQFVHDPQLGYSLPCVAGCPNSLIKELHHFRILGEEQYNRYQQYGAEECVLQMGGVLCPRPGCGAGLLPEPDQRKVTCEGGNGLGCGFAFCRECKEAYHEGECSAVFEASGTTTQAYRVDERAAEQARWEAASKETIKKTTKPCPRCHVPVEKNGGCMHMKCPQPQCRLEWCWNCGCEWNRVCMGDHWFDV
For B5, the “Apoptosis-associated cleavage of mutated Parkin compared to wild type” value [3] was “cleavage as the WT parkin”.
